Values joined by “and” are separate entries in the source; they are usually repeats but may differ in a detail not shown here. Identical values can stand only once. Like-named read-outs stand apart in the source and are kept apart here.
Tests used:
[1] = system: KYSE410 cells; assay: MTT assay, KYSE410; assay type: cell-based, human; settings: for IC50: Homo sapiens, 48 h
Description: (§1) The human cancer cells (H1650, H1975, KYSE70, KYSE410 and KYSE450) were purchased from the Type Culture Collection of the Chinese Academy of Sciences (Shanghai, China). The human immortalized normal esophageal epithelial cell line SHEE was donated by Dr. Enmin Li from the Laboratory of Tumor Pathology (Shantou University Medical College, Shantou, Guangdong, China). Drug-resistant cells (H1650TR, H1975OR, KYSE70TR, KYSE410TR and KYSE450TR) were induced by China-US (Henan) Hormel Cancer Institute. The cellswere cultured in RPMI-1640 complete growth medium containing 100 U/mL penicillin-streptomycin and 10% FBS. Based on the above medium formula, 100 nm/L paclitaxel was added in taxol-resistant cells, 100 nm/L gefitinib was added in gefitinib-resistant cells. The cells were incubated at 37 °C in an atmosphere containing 5% of CO2. The compounds were dissolved in DMSO to make a 50 mM stock solution and were diluted to the concentration of working solutions with complete growth medium before administration.
(§2) Cells were seeded in 96-well plates with 2,200–2,500 cells/well in100 μL. One day after seeding, test compounds with the concentration between 0 and 50 μM were added with 0.1% DMSO as control. Five multiple wells for each concentration. After 48 h, MTT was added and incubated in the plate for 1–4 h in the incubator. The absorbance at 490 nm was measured using a microplate reader (Thermo).

[2] = system: KYSE450 cells; assay: MTT assay, KYSE450; assay type: cell-based, human; settings: for IC50: Homo sapiens, KYSE-450, MTT, 48 h, KYSE450, n = 5, read-out: IC50 48 h KYSE450; for absorbance 490 nm, single well / mean absorbance 490 nm (row G) / mean absorbance 490 nm minus background (row H): KYSE450
Description: as §1, §2

[3] = system: KYSE70 cells; assay: MTT assay, KYSE70; assay type: cell-based, human; settings: for IC50: Homo sapiens, KYSE-70, MTT, 48 h, KYSE70, n = 5
Description: as §1, §2

[4] = biological target: T1, EGFR (Homo sapiens, UniProt P00533); assay: EGFR kinase assay (ELISA); assay type: biochemical; settings: 25°C
T1 construct: purchased Active MOTIF
T1 sequence (P00533 25-1210): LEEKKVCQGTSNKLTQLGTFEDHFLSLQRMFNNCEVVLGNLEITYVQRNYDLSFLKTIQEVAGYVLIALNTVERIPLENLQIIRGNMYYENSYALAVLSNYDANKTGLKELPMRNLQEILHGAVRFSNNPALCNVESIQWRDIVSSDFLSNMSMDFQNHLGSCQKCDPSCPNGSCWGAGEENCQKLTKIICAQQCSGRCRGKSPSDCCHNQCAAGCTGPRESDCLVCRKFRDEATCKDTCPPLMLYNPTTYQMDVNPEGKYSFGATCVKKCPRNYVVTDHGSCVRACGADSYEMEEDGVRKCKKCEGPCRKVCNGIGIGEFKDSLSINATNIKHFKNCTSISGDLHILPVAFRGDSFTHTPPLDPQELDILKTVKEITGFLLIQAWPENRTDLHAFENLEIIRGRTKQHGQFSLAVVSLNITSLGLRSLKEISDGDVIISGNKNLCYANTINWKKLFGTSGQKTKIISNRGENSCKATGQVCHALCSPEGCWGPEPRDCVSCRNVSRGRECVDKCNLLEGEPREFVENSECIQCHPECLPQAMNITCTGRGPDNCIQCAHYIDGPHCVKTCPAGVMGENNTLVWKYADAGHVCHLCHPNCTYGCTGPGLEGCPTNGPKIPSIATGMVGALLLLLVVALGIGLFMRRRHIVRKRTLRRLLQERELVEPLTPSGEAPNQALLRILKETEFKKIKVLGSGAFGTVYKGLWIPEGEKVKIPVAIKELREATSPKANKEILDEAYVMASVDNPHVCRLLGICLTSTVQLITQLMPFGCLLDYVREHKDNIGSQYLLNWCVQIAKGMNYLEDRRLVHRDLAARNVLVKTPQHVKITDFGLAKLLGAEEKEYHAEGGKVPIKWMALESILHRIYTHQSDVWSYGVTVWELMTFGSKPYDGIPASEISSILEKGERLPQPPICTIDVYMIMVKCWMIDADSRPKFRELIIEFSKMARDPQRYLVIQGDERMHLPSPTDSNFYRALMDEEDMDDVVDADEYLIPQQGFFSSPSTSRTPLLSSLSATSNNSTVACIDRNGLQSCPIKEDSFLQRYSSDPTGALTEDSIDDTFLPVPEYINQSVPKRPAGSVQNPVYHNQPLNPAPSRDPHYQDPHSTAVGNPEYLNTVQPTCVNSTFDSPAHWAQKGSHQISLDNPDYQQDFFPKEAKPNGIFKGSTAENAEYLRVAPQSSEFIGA
Description: Kinase inhibitory activities of the compounds were evaluated using the Protein Tyrosine Kinase Assay Kit (SignalChem (British Columbia, Canada)). The kinase enzyme of EGFR was purchased from Active MOTIF. The ELISA experiments were carried out according the instructions of the kit. Active kinases were incubated with indicated compounds in 1 × reaction buffer containing 20 μM substrate at 25°C for 1 h and 2 h, respectively. The absorbance was read with a multimode plate reader (PerkinElmer, United States) at 450 nm.

[5] = system: SHEE cells; assay: MTT assay, normal esophageal epithelial cell line SHEE; assay type: cell-based; settings: Homo sapiens, 48 h, n = 5
Description: as §1, §2

[6] = system: H1975 cells; assay: MTT assay for cell proliferation and cytotoxicity, H1975; assay type: cell-based, human; settings: Homo sapiens, NCI-H1975, 48 h, MTT, 48 h, H1975, n = 5; read-out: IC50 48 h H1975
Description: as §1
as §2, with “After 48 h, MTT was added and incubated in the plate for 1–4 h in the incubator.” left out

[7] = system: H1650 cells; assay: MTT assay for cell proliferation and cytotoxicity, H1650; assay type: cell-based; settings: Homo sapiens, NCI-H1650, 48 h, H1650, n = 5
Description: as §1, §2

[8] = system: KYSE410TR cells; assay: MTT assay, taxol-resistant KYSE410TR; assay type: cell-based, human; settings: Homo sapiens, KYSE 410 TR, MTT, resistance-inducing drug (taxol)
Description: as §1
as §2, with “After 48 h, MTT was added and incubated in the plate for 1–4 h in the incubator.” left out

[9] = system: KYSE70TR cells; assay: MTT assay, taxol-resistant KYSE70TR; assay type: cell-based, human; settings: Homo sapiens, KYSE 70 TR, MTT, resistance-inducing drug (taxol)
Description: as §1
as §2, with “After 48 h, MTT was added and incubated in the plate for 1–4 h in the incubator.” left out

[10] = system: KYSE450TR cells; assay: MTT assay, taxol-resistant KYSE450TR; assay type: cell-based, human; settings: Homo sapiens, KYSE 450 TR, MTT, resistance-inducing drug (taxol)
Description: as §1
as §2, with “After 48 h, MTT was added and incubated in the plate for 1–4 h in the incubator.” left out

[11] = KYSE-410, MTT, KYSE410, n = 5, read-out: IC50 48 h KYSE410
[12] = concentration 12.5 (unit not given)
[13] = concentration 25 (unit not given)
[14] = concentration 50 (unit not given)
[15] = concentration 100 (unit not given)

SMILES | IC50 [1, 11] | blank-corrected absorbance 490 nm relative to control (fraction) ([1]; KYSE410, concentration 12.5) | inhibition (1 minus fraction of control) ([1]; KYSE410, concentration 12.5) | blank-corrected absorbance 490 nm relative to control (fraction) ([1]; KYSE410, concentration 25) | inhibition (1 minus fraction of control) ([1]; KYSE410, concentration 25) | blank-corrected absorbance 490 nm relative to control (fraction) ([1]; KYSE410, concentration 50) | inhibition (1 minus fraction of control) ([1]; KYSE410, concentration 50) | blank-corrected absorbance 490 nm relative to control (fraction) ([1]; KYSE410, concentration 100) | inhibition (1 minus fraction of control) ([1]; KYSE410, concentration 100) | IC50 [2] | melting point | IC50 [3] | blank-corrected absorbance 490 nm relative to control (fraction) ([3]; KYSE70, concentration 12.5) | inhibition (1 minus fraction of control) ([3]; KYSE70, concentration 12.5) | blank-corrected absorbance 490 nm relative to control (fraction) ([3]; KYSE70, concentration 25) | inhibition (1 minus fraction of control) ([3]; KYSE70, concentration 25) | blank-corrected absorbance 490 nm relative to control (fraction) ([3]; KYSE70, concentration 50) | IC50 [5] | IC50 [6] | IC50 [7] | other results
Clc1ccc(-n2cc(-c3cccc(Nc4ncnc5cc6c(cc45)OCCOCCOCCO6)c3)nn2)cc1 [compound 3b] | 10.7 ± 0.86 µM | 0.4136 | 0.5864 | 0.4139 | 0.5861 | 0.3164 | 0.6836 | 0.1744 | 0.8256 | 11.6 ± 1.02 µM | 132 to 135 °C | 8.85 ± 0.67 µM | 0.2939 | 0.7061 | 0.2786 | 0.7214 | 0.1882 | 6.03 ± 0.48 µM | > 50 µM | 7.81 ± 0.46 µM | inhibition (1 minus fraction of control) ([3]; KYSE70, concentration 50): 0.8118; blank-corrected absorbance 490 nm relative to control (fraction) ([3]; KYSE70, concentration 100): 0.1691; inhibition (1 minus fraction of control) ([3]; KYSE70, concentration 100): 0.8309; IC50 ([4]; incubation 1 h, read-out: IC50 EGFR 1 h): 3.26 µM; IC50 ([4]; incubation 2 h, read-out: IC50 EGFR 2 h): 71.7 µM
c1ccc(Cn2cc(-c3cccc(Nc4ncnc5cc6c(cc45)OCCOCCOCCO6)c3)nn2)cc1 [compound 3r] | 9.23 ± 0.97 µM | 0.3227 | 0.6773 | 0.3216 | 0.6784 | 0.3502 | 0.6498 | 0.1592 | 0.8408 | 28.1 ± 1.18 µM | 146 to 149 °C | 7.32 ± 0.62 µM | 0.2722 | 0.7278 | 0.1457 | 0.8543 | 0.1803 | 21 ± 1.11 µM | 19.2 ± 1.59 µM | 19.6 ± 1.72 µM | absorbance 490 nm, single well [2, 12]: 0.6476 and 0.598 and 0.6398 and 0.6662; mean absorbance 490 nm (row G) [2, 12]: 0.6379; mean absorbance 490 nm minus background (row H) [2, 12]: 0.586; absorbance 490 nm, single well [2, 13]: 0.4195 and 0.4416 and 0.4375 and 0.4182; mean absorbance 490 nm (row G) [2, 13]: 0.4292; mean absorbance 490 nm minus background (row H) [2, 13]: 0.3773; absorbance 490 nm, single well [2, 14]: 0.1593 and 0.152 and 0.1434; mean absorbance 490 nm (row G) [2, 14]: 0.1516; mean absorbance 490 nm minus background (row H) [2, 14]: 0.09971; absorbance 490 nm, single well [2, 15]: 0.127 and 0.1396 and 0.1367; mean absorbance 490 nm (row G) [2, 15]: 0.1344; mean absorbance 490 nm minus background (row H) [2, 15]: 0.08257; inhibition (1 minus fraction of control) ([3]; KYSE70, concentration 50): 0.8197; blank-corrected absorbance 490 nm relative to control (fraction) ([3]; KYSE70, concentration 100): 0.1267; inhibition (1 minus fraction of control) ([3]; KYSE70, concentration 100): 0.8733
Brc1ccccc1Cn1cc(-c2cccc(Nc3ncnc4cc5c(cc34)OCCOCCOCCO5)c2)nn1 [compound 3s] | 19.2 ± 1.22 µM |  |  |  |  |  |  |  |  | 23.4 ± 1.13 µM | 161 to 164 °C | 9.35 ± 0.89 µM |  |  |  |  |  | 14.2 ± 0.94 µM | > 50 µM | 17.1 ± 1.64 µM | 
COc1cccc(Cn2cc(-c3cccc(Nc4ncnc5cc6c(cc45)OCCOCCOCCO6)c3)nn2)c1 [compound 3t] | > 50 µM |  |  |  |  |  |  |  |  | 45.6 ± 2.01 µM | 131 to 134 °C | > 50 µM |  |  |  |  |  | 33.3 ± 1.99 µM | 20 ± 1.52 µM | 21 ± 1.91 µM | 
Brc1cc(Br)cc(Cn2cc(-c3cccc(Nc4ncnc5cc6c(cc45)OCCOCCOCCO6)c3)nn2)c1 [compound 3u] | > 50 µM |  |  |  |  |  |  |  |  | > 50 µM | 151 to 154 °C | > 50 µM |  |  |  |  |  | > 50 µM | > 50 µM | > 50 µM | 
Fc1ccc(CCn2cc(-c3cccc(Nc4ncnc5cc6c(cc45)OCCOCCOCCO6)c3)nn2)cc1 [compound 3v] | 21.6 ± 1.35 µM | 1.2383 | -0.2383 | 0.4202 | 0.5798 | 0.1986 | 0.8014 | -0.03723 | 1.037 | 11 ± 0.97 µM | 110 to 113 °C | 6.93 ± 0.37 µM | 0.0977 | 0.9023 | 0.03951 | 0.9605 | 0.1249 | 8.26 ± 0.71 µM | 11.1 ± 0.95 µM | 11.6 ± 0.96 µM | absorbance 490 nm, single well [2, 12]: 0.3527 and 0.3885 and 0.4267 and 0.4169; mean absorbance 490 nm (row G) [2, 12]: 0.3962; mean absorbance 490 nm minus background (row H) [2, 12]: 0.3414; absorbance 490 nm, single well [2, 13]: 0.1525 and 0.1448 and 0.156 and 0.143 and 0.153; mean absorbance 490 nm (row G) [2, 13]: 0.1499; mean absorbance 490 nm minus background (row H) [2, 13]: 0.09506; absorbance 490 nm, single well [2, 14]: 0.0873 and 0.0943 and 0.1023 and 0.0955; mean absorbance 490 nm (row G) [2, 14]: 0.09485; mean absorbance 490 nm minus background (row H) [2, 14]: 0.04005; absorbance 490 nm, single well [2, 15]: 0.0657 and 0.0611 and 0.0638 and 0.0596 and 0.0609; mean absorbance 490 nm (row G) [2, 15]: 0.06222; mean absorbance 490 nm minus background (row H) [2, 15]: 0.00742; inhibition (1 minus fraction of control) ([3]; KYSE70, concentration 50): 0.8751; blank-corrected absorbance 490 nm relative to control (fraction) ([3]; KYSE70, concentration 100): 0.0961; inhibition (1 minus fraction of control) ([3]; KYSE70, concentration 100): 0.9039
CC(=O)O[C@H]1C(=O)[C@@]2(C)[C@H]([C@H](OC(=O)c3ccccc3)[C@]3(O)C[C@H](OC(=O)[C@H](O)[C@@H](NC(=O)c4ccccc4)c4ccccc4)C(C)=C1C3(C)C)[C@]1(OC(C)=O)CO[C@@H]1C[C@@H]2O [taxol, reference compound] |  |  |  |  |  |  |  |  |  |  |  |  |  |  |  |  |  |  |  |  | IC50 ([8]; 24 h, read-out: 24 h IC50): 6.4 ± 0.43 µM; IC50 ([8]; 48 h, read-out: 48 h IC50): 1.71 ± 0.05 µM; IC50 ([1]; KYSE 410, MTT, resistance-inducing drug (taxol), read-out: 48 h IC50): 0.0524 ± 0.00345 µM; IC50 ([9]; 24 h, read-out: 24 h IC50): 4.92 ± 0.274 µM; IC50 ([9]; 48 h, read-out: 48 h IC50): 1.12 ± 0.0352 µM; IC50 ([10]; 24 h, read-out: 24 h IC50): 0.266 ± 0.0661 µM; IC50 ([10]; 48 h, read-out: 48 h IC50): 0.12 ± 0.0301 µM

— publication PMC9709406 (Frontiers in Pharmacology, 2022)
